Blank lines part the entries; values can stand above or below the molecule they belong to.
Columns and labels:
K-RAS G12C = biological target: T1, K-RAS G12C (Homo sapiens, UniProt P01116, G12C); assay: Compound depletion assay, K-RAS G12C; type: binding; conditions: G12C protein 20 μM, compound 8 μM, 25° C.
T1 construct: His tag; purchased Stratech
Experimental: (§1) Compound Depletion Assay Method
(§2) Lyophilized human K-RAS (12 Cys) protein (His tag) and human K-RAS (12 Asp) protein (His tag) were purchased from Stratech and reconstituted at 30 μM in water. The protein concentration of K-RAS G12C and K-RAS G12D was adjusted to 20 μM in K-RAS Assay Buffer (20 mM HEPES pH 7.5, 150 mM NaCl, 1 mM MgCl2). A 49 μl aliquot of protein solution was transferred to 1.5 ml eppendorfs and incubated at room temperature for 10 minutes. A 1 μl aliquot of compound solution in DMSO was added to the protein solutions in the 1.5 ml eppendorfs to initiate the reaction, with a final assay compound concentration of 8 μM. Reactions were agitated at 25° C., 700 rpm. At each time point (0, 30, 180, 360, 1440 minutes), 10 μl of the reaction mixture was removed, added to 30 μl quench solution (0.3% formic acid, 75 nM propranolol in acetonitrile) to stop the reaction and stored at 4° C. Once all reactions were quenched, the samples were centrifuged at 16000 g for 10 minutes to pellet the protein and salts. A 10 μl aliquot of supernatant containing compound was diluted in 50:50 acetonitrile:H2O in a 96 well plate. The plates were heat sealed and the samples analysed by LC-MS/MS to determine the concentration of compound remaining in the samples. To determine the reaction progress, the compound signal was normalized to the internal standard signal (propranolol). The decrease in free compound concentration is shown as a percentage over time, with the […] at time zero fixed at one hundred percent. Compound is assumed to be completely depleted when no longer detectable with a double blank sample as reference.

K-RAS G12D = biological target: T2, K-RAS G12D (Homo sapiens, UniProt P01116, G12D); assay: Compound depletion assay, K-RAS G12D; type: binding; conditions: G12D protein 20 μM, compound 8 μM, 25° C.
T2 construct: His tag; purchased Stratech
Experimental: as §1, §2

T2 sequence (P01116 1-188 isoform P01116-2 G12D): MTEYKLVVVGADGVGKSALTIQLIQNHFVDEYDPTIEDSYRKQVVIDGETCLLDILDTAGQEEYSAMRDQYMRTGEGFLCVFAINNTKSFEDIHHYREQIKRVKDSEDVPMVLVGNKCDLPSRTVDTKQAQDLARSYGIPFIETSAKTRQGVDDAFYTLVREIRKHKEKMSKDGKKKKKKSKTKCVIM
T1 sequence (P01116 1-188 isoform P01116-2 G12C): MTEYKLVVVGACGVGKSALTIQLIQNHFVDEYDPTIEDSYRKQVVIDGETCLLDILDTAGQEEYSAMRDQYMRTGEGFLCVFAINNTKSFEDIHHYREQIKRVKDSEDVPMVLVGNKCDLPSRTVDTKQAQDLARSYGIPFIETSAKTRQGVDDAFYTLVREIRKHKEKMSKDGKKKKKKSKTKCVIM

Compound: C=CC(=O)N1CCN(c2cc(C(=O)Nc3cc(O)cc4ccccc34)nc(-c3ccncc3)n2)C[C@@H]1CC#N [Example 26, 6-[(3S)-3-(cyanomethyl)-4-prop-2-enoyl-piperazin-1-yl]-N-(3-hydroxy-1-naphthyl)-2-(4-pyridyl)pyrimidine-4-carboxamide]
30 min Category (compound remaining at timepoint) (K-RAS G12C): A (≥70% compound remaining at timepoint)
3 hr Category (compound remaining at timepoint) (K-RAS G12C): A (≥70% compound remaining at timepoint)
6 hr Category (compound remaining at timepoint) (K-RAS G12C): A (≥70% compound remaining at timepoint)
30 min Category (compound remaining at timepoint) (K-RAS G12D): A (≥70% compound remaining at timepoint)
3 hr Category (compound remaining at timepoint) (K-RAS G12D): A (≥70% compound remaining at timepoint)
6 hr Category (compound remaining at timepoint) (K-RAS G12D): A (≥70% compound remaining at timepoint)

Compound: C=CC(=O)N1CCN(c2cc(C(=O)Nc3cc(O)cc4ccccc34)nc(NCCN(C)C)n2)C[C@@H]1CC#N [Example 29, 6-[(3S)-3-(cyanomethyl)-4-prop-2-enoyl-piperazin-1-yl]-2-[2-(dimethylamino)ethylamino]-N-(3-hydroxy-1-naphthyl)pyrimidine-4-carboxamide]
30 min Category (compound remaining at timepoint) (K-RAS G12C): A (≥70% compound remaining at timepoint)
3 hr Category (compound remaining at timepoint) (K-RAS G12C): B (30%-70% compound remaining at timepoint)
6 hr Category (compound remaining at timepoint) (K-RAS G12C): C (≤30% compound remaining at timepoint)
30 min Category (compound remaining at timepoint) (K-RAS G12D): A (≥70% compound remaining at timepoint)
3 hr Category (compound remaining at timepoint) (K-RAS G12D): A (≥70% compound remaining at timepoint)
6 hr Category (compound remaining at timepoint) (K-RAS G12D): A (≥70% compound remaining at timepoint)

Compound: C=CC(=O)N1CCN(c2cc(C(=O)Nc3cc(O)cc4ccccc34)nc(-c3ccc4cnn(C)c4c3)n2)C[C@@H]1CC#N [Example 32, 6-[(3S)-3-(cyanomethyl)-4-prop-2-enoyl-piperazin-1-yl]-N-(3-hydroxy-1-naphthyl)-2-(1-methylindazol-6-yl)pyrimidine-4-carboxamide]
30 min Category (compound remaining at timepoint) (K-RAS G12C): A (≥70% compound remaining at timepoint)
3 hr Category (compound remaining at timepoint) (K-RAS G12C): A (≥70% compound remaining at timepoint)
6 hr Category (compound remaining at timepoint) (K-RAS G12C): A (≥70% compound remaining at timepoint)
30 min Category (compound remaining at timepoint) (K-RAS G12D): A (≥70% compound remaining at timepoint)
3 hr Category (compound remaining at timepoint) (K-RAS G12D): A (≥70% compound remaining at timepoint)
6 hr Category (compound remaining at timepoint) (K-RAS G12D): A (≥70% compound remaining at timepoint)

Compound: C=CC(=O)N1CCN(c2cc(C(=O)Nc3cc(O)cc4ccccc34)nc(NCCN3CCN(C)CC3)n2)C[C@@H]1CC#N [Example 27, 6-[(3S)-3-(cyanomethyl)-4-prop-2-enoyl-piperazin-1-yl]-N-(3-hydroxy-1-naphthyl)-2-[2-(4-methylpiperazin-1-yl)ethylamino]pyrimidine-4-carboxamide]
30 min Category (compound remaining at timepoint) (K-RAS G12C): A (≥70% compound remaining at timepoint)
3 hr Category (compound remaining at timepoint) (K-RAS G12C): B (30%-70% compound remaining at timepoint)
6 hr Category (compound remaining at timepoint) (K-RAS G12C): C (≤30% compound remaining at timepoint)
30 min Category (compound remaining at timepoint) (K-RAS G12D): A (≥70% compound remaining at timepoint)
3 hr Category (compound remaining at timepoint) (K-RAS G12D): A (≥70% compound remaining at timepoint)
6 hr Category (compound remaining at timepoint) (K-RAS G12D): A (≥70% compound remaining at timepoint)

Compound: C=CC(=O)N1CCN(c2cc(C(=O)Nc3cc(O)cc4ccccc34)nc(NCc3cnn(C)c3)n2)C[C@@H]1CC#N [Example 36, 6-[(3S)-3-(cyanomethyl)-4-prop-2-enoyl-piperazin-1-yl]-N-(3-hydroxy-1-naphthyl)-2-[(1-methylpyrazol-4-yl)methylamino]pyrimidine-4-carboxamide]
30 min Category (compound remaining at timepoint) (K-RAS G12C): A (≥70% compound remaining at timepoint)
3 hr Category (compound remaining at timepoint) (K-RAS G12C): A (≥70% compound remaining at timepoint)
6 hr Category (compound remaining at timepoint) (K-RAS G12C): B (30%-70% compound remaining at timepoint)
30 min Category (compound remaining at timepoint) (K-RAS G12D): A (≥70% compound remaining at timepoint)
3 hr Category (compound remaining at timepoint) (K-RAS G12D): A (≥70% compound remaining at timepoint)
6 hr Category (compound remaining at timepoint) (K-RAS G12D): A (≥70% compound remaining at timepoint)

Compound: C=CC(=O)N1CCN(c2cc(C(=O)Nc3cc(O)cc4ccccc34)nc(NCc3ccnn3C)n2)C[C@@H]1CC#N [Example 41, 6-[(3S)-3-(cyanomethyl)-4-prop-2-enoyl-piperazin-1-yl]-N-(3-hydroxy-1-naphthyl)-2-[(2-methylpyrazol-3-yl)methylamino]pyrimidine-4-carboxamide]
30 min Category (compound remaining at timepoint) (K-RAS G12C): A (≥70% compound remaining at timepoint)
3 hr Category (compound remaining at timepoint) (K-RAS G12C): B (30%-70% compound remaining at timepoint)
6 hr Category (compound remaining at timepoint) (K-RAS G12C): B (30%-70% compound remaining at timepoint)
30 min Category (compound remaining at timepoint) (K-RAS G12D): A (≥70% compound remaining at timepoint)
3 hr Category (compound remaining at timepoint) (K-RAS G12D): A (≥70% compound remaining at timepoint)
6 hr Category (compound remaining at timepoint) (K-RAS G12D): A (≥70% compound remaining at timepoint)

Second part, led by results:

3 hr Category (compound remaining at timepoint) (K-RAS G12C): A (≥70% compound remaining at timepoint)
3 hr Category (compound remaining at timepoint) (K-RAS G12D): A (≥70% compound remaining at timepoint)
24 hr Category (compound remaining at timepoint) (K-RAS G12D): A (≥70% compound remaining at timepoint)
Compound: C=CC(=O)N1CCN(c2cc(C(=O)Nc3cccc4ccccc34)nc(OC[C@@H]3CCCN3C)n2)CC1 [Example 01, 2-[[(2S)-1-methylpyrrolidin-2-yl]methoxy]-N-(1-naphthyl)-6-(4-prop-2-enoylpiperazin-1-yl)pyrimidine-4-carboxamide]
24 hr Category (compound remaining at timepoint) (K-RAS G12C): B (30%-70% compound remaining at timepoint)

3 hr Category (compound remaining at timepoint) (K-RAS G12C): A (≥70% compound remaining at timepoint)
24 hr Category (compound remaining at timepoint) (K-RAS G12C): A (≥70% compound remaining at timepoint)
3 hr Category (compound remaining at timepoint) (K-RAS G12D): A (≥70% compound remaining at timepoint)
24 hr Category (compound remaining at timepoint) (K-RAS G12D): A (≥70% compound remaining at timepoint)
Compound: C=CC(=O)N1CCN(c2cc(NC(=O)c3cccc4ccccc34)nc(N3CCN(C)CC3)n2)CC1 [Example 12, N-[2-(4-methylpiperazin-1-yl)-6-(4-prop-2-enoylpiperazin-1-yl)pyrimidin-4-yl]naphthalene-1-carboxamide]

3 hr Category (compound remaining at timepoint) (K-RAS G12C): C (≤30% compound remaining at timepoint)
6 hr Category (compound remaining at timepoint) (K-RAS G12C): C (≤30% compound remaining at timepoint)
30 min Category (compound remaining at timepoint) (K-RAS G12D): A (≥70% compound remaining at timepoint)
3 hr Category (compound remaining at timepoint) (K-RAS G12D): A (≥70% compound remaining at timepoint)
6 hr Category (compound remaining at timepoint) (K-RAS G12D): A (≥70% compound remaining at timepoint)
Compound: C=CC(=O)N1CCN(c2cc(C(=O)Nc3cc(O)cc4ccccc34)nc(NCC3CCCN3C)n2)C[C@@H]1CC#N (stereo partly drawn) [Example 45, 6-[(3S)-3-(cyanomethyl)-4-prop-2-enoyl-piperazin-1-yl]-N-(3-hydroxy-1-naphthyl)-2-[(1-methylpyrrolidin-2-yl)methylamino]pyrimidine-4-carboxamide]
30 min Category (compound remaining at timepoint) (K-RAS G12C): B (30%-70% compound remaining at timepoint)

3 hr Category (compound remaining at timepoint) (K-RAS G12C): A (≥70% compound remaining at timepoint)
24 hr Category (compound remaining at timepoint) (K-RAS G12C): A (≥70% compound remaining at timepoint)
3 hr Category (compound remaining at timepoint) (K-RAS G12D): A (≥70% compound remaining at timepoint)
24 hr Category (compound remaining at timepoint) (K-RAS G12D): A (≥70% compound remaining at timepoint)
Compound: C=CC(=O)N1CCN(c2cc(C(=O)Nc3cccc(O)c3)nc(OC[C@@H]3CCCN3C)n2)CC1 [Example 04, N-(3-hydroxyphenyl)-2-[[(2S)-1-methylpyrrolidin-2-yl]methoxy]-6-(4-prop-2-enoylpiperazin-1-yl)pyrimidine-4-carboxamide]

3 hr Category (compound remaining at timepoint) (K-RAS G12C): C (≤30% compound remaining at timepoint)
6 hr Category (compound remaining at timepoint) (K-RAS G12C): C (≤30% compound remaining at timepoint)
24 hr Category (compound remaining at timepoint) (K-RAS G12C): C (≤30% compound remaining at timepoint)
30 min Category (compound remaining at timepoint) (K-RAS G12D): A (≥70% compound remaining at timepoint)
3 hr Category (compound remaining at timepoint) (K-RAS G12D): A (≥70% compound remaining at timepoint)
6 hr Category (compound remaining at timepoint) (K-RAS G12D): A (≥70% compound remaining at timepoint)
24 hr Category (compound remaining at timepoint) (K-RAS G12D): A (≥70% compound remaining at timepoint)
Compound: C=CC(=O)N1CCN(c2cc(C(=O)Nc3cc(O)cc4ccccc34)nc(OC[C@@H]3CCCN3C)n2)C[C@@H]1CC#N [Example 08, 6-[(3S)-3-(cyanomethyl)-4-prop-2-enoyl-piperazin-1-yl]-N-(3-hydroxy-1-naphthyl)-2-[[(2S)-1-methylpyrrolidin-2-yl]methoxy]pyrimidine-4-carboxamide]
30 min Category (compound remaining at timepoint) (K-RAS G12C): B (30%-70% compound remaining at timepoint)

Source: patent US12612387B2, “RAS inhibitors and methods of using the same” (Jazz Pharmaceuticals Ireland Limited, priority 2020, dated 2026)
